Experimental data published in ChEMBL document CHEMBL1132046, “Novel bisbenzamidines and bisbenzimidazolines as noncompetitive NMDA receptor antagonists” (Bioorg Med Chem Lett, 1999).

Columns and labels:
Glutamate NMDA receptor = assay: Inhibition of [3H]dizocilpine binding to N-methyl-D-aspartate (NMDA) receptor complex in rat brain membranes; format: cell membranes
Rattus norvegicus [1] = species on record: Rattus norvegicus; assay: Protective potency against glutamate-induced neurotoxicity in cultures of embryonic rat brain at a concentration of 100 uM (p < 0.05); format: functional
Rattus norvegicus [2] = species on record: Rattus norvegicus; assay: Protective potency against glutamate-induced neurotoxicity in cultures of embryonic rat brain at a compound concentration of 100 uM; format: functional
Rattus norvegicus [3] = species on record: Rattus norvegicus; assay: Protective potency against glutamate-induced neurotoxicity in cultures of embryonic rat brain at a compound concentration of 10 uM+Glutamate (100 uM); format: functional
Rattus norvegicus [4] = species on record: Rattus norvegicus; assay: Protective potency against glutamate-induced neurotoxicity in cultures of embryonic rat brain at a concentration of 100 uM+Glutamate (100 uM); format: functional
Rattus norvegicus [5] = species on record: Rattus norvegicus; assay: Inhibitory activity (1.0 uM) against NMDA (30 uM) and glycine (10 uM) induced increase in [Ca2+]i in cultured forebrain neurons from fetal rat; format: functional; design: scale not given: the % may be the effect or the level left
Rattus norvegicus [6] = species on record: Rattus norvegicus; assay: Inhibitory activity (10.0 uM) against NMDA (30 uM) and glycine (10 uM) induced increase in [Ca2+]i in cultured forebrain neurons from fetal rat; format: functional; design: scale not given: the % may be the effect or the level left
Rattus norvegicus [7] = species on record: Rattus norvegicus; assay: Inhibitory activity (0.1 uM) against NMDA (30 uM) and glycine (10 uM) induced increase in [Ca2+]i in cultured forebrain neurons from fetal rat; format: functional; design: scale not given: the % may be the effect or the level left
Rattus norvegicus [8] = species on record: Rattus norvegicus; assay: Protective potency against glutamate-induced neurotoxicity in cultures of embryonic rat brain at a compound concentration of 10 uM; format: functional

| Compound | IC50 (Glutamate NMDA receptor) | further results |
| --- | --- | --- |
| c1cc(N2CCCN(c3ccc(C4=NCCN4)cc3)CC2)ccc1C1=NCCN1 | 4.99 µM |  |
| c1cc(C2=NCCN2)ccc1CC1CCCN(c2ccc(C3=NCCN3)cc2)C1 (configuration not stated) | 7.84 µM |  |
| N=C(N)c1ccc(NC(=O)c2cccc(C(=O)Nc3ccc(C(=N)N)cc3)c2)cc1 | > 200 µM |  |
| N[C@@H](CCC(=O)O)C(=O)O [GLUTAMIC ACID] |  | Activity (Rattus norvegicus [1]): 60% |
| C(=C1/CCCN(c2ccc(C3=NCCN3)cc2)C1)/c1ccc(C2=NCCN2)cc1 | 8.35 µM |  |
| N=C(N)c1ccc(NC(=O)c2cccc(C(=O)Nc3ccc(C(=N)N)cc3)n2)cc1 | 66 µM |  |
| c1cc(C2=NCCN2)ccc1CC1CCN(c2ccc(C3=NCCN3)cc2)CC1 | 6.29 µM |  |
| c1cc(C2=NCCN2)ccc1OC[C@@H]1C[C@H]1COc1ccc(C2=NCCN2)cc1 | 16.5 µM |  |
| C(=C1CCN(Cc2ccc(C3=NCCN3)cc2)CC1)c1ccc(C2=NCCN2)cc1 | 35.6 µM |  |

Now from value to molecule, other results behind:

| IC50 (Glutamate NMDA receptor) | Compound | further results |
| --- | --- | --- |
| 2.59 µM | N=C(N)c1ccc(OCCCCCOc2ccc(C(=N)N)cc2)cc1 [PENTAMIDINE] |  |
| 18.2 µM | c1cc(N2CCN(c3ccc(C4=NCCN4)cc3)CC2)ccc1C1=NCCN1 |  |
| 11.7 µM | N=C(N)c1ccc(OC[C@@H]2C[C@H]2COc2ccc(C(=N)N)cc2)cc1 |  |
| 1.19 µM | N=C(N)c1ccc(N2CCCN(c3ccc(C(=N)N)cc3)CC2)cc1 | Activity (Rattus norvegicus [2]): 87%; Activity (Rattus norvegicus [3]): 99%; Activity (Rattus norvegicus [4]): 98%; Activity (Rattus norvegicus [5]): 67.04%; Activity (Rattus norvegicus [6]): 37.58%; Activity (Rattus norvegicus [7]): 111.26%; Activity (Rattus norvegicus [8]): 100% |
| 45.8 µM | N#Cc1ccc(N2CCCN(c3ccc(C#N)cc3)CC2)cc1 |  |
| 5.32 µM | N=C(N)c1ccc(N2CCN(c3ccc(C(=N)N)cc3)CC2)cc1 |  |
